From ChEMBL document CHEMBL1159114, “Novel bis-arylsulfonamides and aryl sulfonimides as inactivators of plasminogen activator inhibitor-1 (PAI-1)” (Bioorg Med Chem Lett, 2010)

Columns and labels:
[1] = molecular target: T1, Plasminogen activator inhibitor 1 (Homo sapiens, UniProt P05121); experiment: Inhibition of human recombinant PAI1 assessed as rate of AMC release after 30 mins
Antithrombin-III = Antithrombin-III (Homo sapiens, UniProt P01008); experiment: Inhibition of antithrombin-3 assessed as residual alpha-thrombin activity
[2] = molecular target: T1, Plasminogen activator inhibitor 1; experiment: Inhibition of human recombinant PAI1 assessed as rate of AMC release at 300 uM after 30 mins

Sequence of Antithrombin-III (P01008 whole entry): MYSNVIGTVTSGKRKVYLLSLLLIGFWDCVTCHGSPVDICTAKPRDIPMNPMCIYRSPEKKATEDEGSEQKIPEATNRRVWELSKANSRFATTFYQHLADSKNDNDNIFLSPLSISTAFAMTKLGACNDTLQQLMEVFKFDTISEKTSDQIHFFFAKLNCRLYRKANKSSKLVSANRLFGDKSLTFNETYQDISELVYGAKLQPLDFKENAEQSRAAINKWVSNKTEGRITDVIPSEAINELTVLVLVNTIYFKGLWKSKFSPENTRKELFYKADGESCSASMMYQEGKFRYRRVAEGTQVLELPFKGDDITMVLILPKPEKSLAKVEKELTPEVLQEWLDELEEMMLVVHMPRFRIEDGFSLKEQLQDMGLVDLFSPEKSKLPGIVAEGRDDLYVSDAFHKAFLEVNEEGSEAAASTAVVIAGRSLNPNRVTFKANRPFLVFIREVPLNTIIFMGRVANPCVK
T1 sequence (P05121 whole entry): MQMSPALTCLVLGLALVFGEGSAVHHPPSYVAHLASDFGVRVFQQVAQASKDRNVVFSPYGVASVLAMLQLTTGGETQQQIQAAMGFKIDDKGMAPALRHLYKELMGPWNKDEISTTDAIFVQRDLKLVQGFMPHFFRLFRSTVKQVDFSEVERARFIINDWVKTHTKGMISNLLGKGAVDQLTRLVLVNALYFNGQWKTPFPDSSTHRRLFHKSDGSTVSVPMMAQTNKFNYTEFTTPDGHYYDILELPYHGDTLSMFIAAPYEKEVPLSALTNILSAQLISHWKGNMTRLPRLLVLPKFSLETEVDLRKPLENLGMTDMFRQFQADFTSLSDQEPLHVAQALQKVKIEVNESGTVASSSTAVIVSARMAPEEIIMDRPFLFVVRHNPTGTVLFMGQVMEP

| Compound | IC50 [1] [µM] | IC50 (Antithrombin-III) [µM] | inhibition [2] [%] |
| --- | --- | --- | --- |
| CCCCCCN(S(=O)(=O)c1ccc(O)c(O)c1)S(=O)(=O)c1ccc(O)c(O)c1 | 0.284 | > 300 | – |
| O=S(=O)(NCCCCNS(=O)(=O)c1ccc(O)c(O)c1)c1ccc(O)c(O)c1 | > 3000 | > 3000 | – |
| O=S(=O)(NCCCCCCNS(=O)(=O)c1ccc(O)c(O)c1)c1ccc(O)c(O)c1 | 1380 | > 3000 | – |
| O=S(=O)(NCCNS(=O)(=O)c1ccc(O)c(O)c1)c1ccc(O)c(O)c1 | 518 | > 3000 | – |
| CCN(CCN(CC)S(=O)(=O)c1ccccc1)S(=O)(=O)c1ccccc1 | > 300 | > 300 | – |
| CCN(CCN(CC)S(=O)(=O)c1ccc(OC)c(OC)c1)S(=O)(=O)c1ccc(OC)c(OC)c1 | > 300 | > 300 | – |
| CCN(CCN(CC)S(=O)(=O)c1ccc(O)c(O)c1)S(=O)(=O)c1ccc(O)c(O)c1 | 9.32 | > 1000 | – |
| O=S(=O)(c1ccc(O)c(O)c1)N1CCN(S(=O)(=O)c2ccc(O)c(O)c2)CC1 | > 300 | > 300 | < 30 |
| CCN(CCN(CC)S(=O)(=O)c1ccc(O)cc1)S(=O)(=O)c1ccc(O)cc1 | > 300 | > 300 | – |
| O=S(=O)(c1ccc(O)c(O)c1)N(C1CCCCC1)S(=O)(=O)c1ccc(O)c(O)c1 | 0.594 | > 300 | – |
| CCN(CCN(CC)S(=O)(=O)c1cc(O)ccc1O)S(=O)(=O)c1cc(O)ccc1O | > 300 | > 300 | < 30 |
| O=S(=O)(c1ccc(O)c(O)c1)N(Cc1ccccc1)S(=O)(=O)c1ccc(O)c(O)c1 | 4.82 | > 300 | – |
| CCN(CCN(CC)S(=O)(=O)c1cccc(O)c1)S(=O)(=O)c1cccc(O)c1 | 343 | > 1000 | – |
| CCCN(S(=O)(=O)c1ccc(O)c(O)c1)S(=O)(=O)c1ccc(O)c(O)c1 | 2.67 | > 1000 | – |
| CCN(CCN(CC)S(=O)(=O)c1cc(F)c(O)c(F)c1)S(=O)(=O)c1cc(F)c(O)c(F)c1 | 128 | > 3000 | – |
